{"source": "patent US9006394B2", "about": "“Peptide-presenting surfaces for long-term culture of pluripotent cells” (Wisconsin Alumni Research Foundation, priority 2008, dated 2015)", "key": {"[1]": {"test_system": "hESCs (H1 and H9)", "assay": "hESC culture for 6 days on peptide-AT SAM arrays, Oct-4 and SSEA-4 staining", "type": "cell-based, human", "description": "hESCs were passaged to SAMs of peptide-AT conjugates on gold in mTeSR™1 optionally supplemented with 10 ng/ml heregulin-β1 (Peprotech; Rocky Hill, N.J.) and 5 μM Y-27632 (Calbiochem; San Diego, Calif.). […] Some surfaces presented peptide-AT conjugates of only vitronectin GBP (SEQ ID NO:1), fibronectin GBP (SEQ ID NO:2) or bone sialoprotein GBP (SEQ ID NO:3) Alternatively, some surfaces presented peptide-AT conjugates of only the integrin-binding peptide (SEQ ID NO:5), another bioactive peptide derived from fibronectin (SEQ ID NO:6), the FGF receptor binding peptide (SEQ ID NO:4), the laminin-derived bioactive peptide (SEQ ID NO:7), […] (SEQ ID NO: 8) or […] (SEQ ID NO: 9). Furthermore, some surfaces presented separate peptide-AT conjugates of the integrin-binding peptide (SEQ ID NO:5) and FGF receptor binding peptide (SEQ ID NO:4); the integrin-binding peptide (SEQ ID NO:5) and vitronectin GBP (SEQ ID NO:1); the integrin-binding peptide (SEQ ID NO:5) and bioactive peptide derived from fibronectin (SEQ ID NO:6); and the vitronectin GBP (SEQ ID NO:1) and […] (SEQ ID NO: 9). The density of the peptides on the surface varied from 0.5% to 25% (see, FIG. 1).\nImages were collected with a Hamamatsu (Bridgewater, N.J.) Digital Camera mounted onto an Olympus IX81 Microscope. […]"}, "[2]": {"test_system": "human ESCs (H9)", "assay": "Cell adhesion (CellTiter-Glo) with soluble heparin or chondroitinase ABC", "type": "cell-based", "settings": "1 hour", "description": "To determine the effect of a soluble GAG on hESC binding to GBPs, hESCs were plated onto Matrigel-coated surfaces, vitronectin-coated surfaces, or surfaces presenting the heparin-binding peptide […] (SEQ ID NO: 1) in the presence or absence of soluble heparin (0.5 mg/mL). After 1 hour, the surfaces were washed and the cells lysed. The cell lysates were used to determine approximate cell numbers using Cell Titer Glo (Promega). The ratio of the mean luminescence of the cell lysates of cells plated in the presence of heparin versus those without heparin was expressed as percent cell binding for each surface.\nTo determine if glycosaminoglycans (GAGs) are required for GBP binding, human ESCs (H9) cultured on Matrigel were dissociated using an enzyme-free, Hanks'-based cell dissociation buffer (Sigma) for 10-15 minutes. Cells were resuspended in DMEM/F12 (Gibco), or DMEM/F12 supplemented with 2 units/mL chondroitinase ABC (Sigma), or 500 ug/mL heparin (Sigma). Cells treated with the GAG-degrading enzymes were incubated for 1 hour in suspension at 37° C. Cell suspensions were seeded onto Matrigel-coated surfaces, recombinant vitronectin-coated surfaces (10 μg/mL, R&D Systems), or SAMs presenting the peptide […] (SEQ ID NO: 1) at a 5% surface density. After 1 hour, surfaces were washed 3 times with PBS and the cells were lysed with M-PER buffer (Thermo Fisher Scientific, Inc., Rockford, Ill.). The cell lysate was mixed with CellTiter-Glo (Promega) to determine the number of viable cells in culture based on the presence of ATP. The luminescence was measured on 20/20^n luminometer (Turner Biosystems, Inc., Sunnyvale Calif.). • Cell Growth: […]"}, "[3]": {"test_system": "pluripotent stem cells", "assay": "Number of cell divisions by fluorescent cell staining", "type": "cell-based, human", "settings": "listed as GKKQRFRHRNKG"}, "[4]": {"test_system": "H9 hESCs"}}, "note": "Ends that are not written are not given here.", "data": [{"sequence": "GKKQRFRHRNRKG (not fully specified (C-terminus); listed as Homo sapiens)", "values": [{"measurement": "cell attachment and self-renewal, presence of Oct-4 and SSEA-4 after 6 days", "setting": "[1]", "result": "best supported both cell attachment and self-renewal"}, {"measurement": "adhesion of cells treated with chondroitinase ABC", "setting": "[2]; 2 units/mL chondroitinase ABC, 5% surface density", "result": "decreased adhesion"}, {"measurement": "hESC binding in the presence of soluble heparin", "setting": "[2]; soluble heparin 0.5 mg/mL", "result": "abrogate hESC binding"}, {"measurement": "number of cell divisions", "setting": "[3]", "result": "superior to polylysine-coated surfaces"}, {"measurement": "karyotype by standard G banding", "setting": "[4]", "result": "karyotypically normal"}]}]}
